Patent US20250025429A1, “LIPID NANOPARTICLES FOR OLIGONUCLEOTIDE DELIVERY” (ZIPHIUS NV, priority 2021, published 2025)

Columns and labels:
[1] = LNP characterisation by Zeta Sizer (particle size, polydispersity, charge); assay type: physicochemical; details: LNP with saRNA; lipid:DOPE:Cholesterol:DMG-PEG 35:20:43.5:1.5; N/P approximately 40/1
Procedure: Cationic lipids, DOPE, Cholesterol and DMG-PEG lipid were solubilized in ethanol or DMSO at a molar ratio of 35:20:43.5:1.5 and a concentration of 100:25:20:25 μg/μL for C12-200 or 170:25:20:25 μg/μL for the comparator lipids. Lipid nanoparticles (LNP) were prepared by targeting an N/P ratio of approximately 40/1 with saRNA. Briefly, the saRNA was diluted to 0.5 mg/mL in 5 mM citrate buffer, pH 4.5. Microfluidic mixer (Ignite from Precision Nanosystems, California, USA) was used to mix the lipid solution with the saRNA aqueous solution at a ratio of about 1:3 (vol/vol) with total flow rates above 10 ml/min. The ethanol was then removed, and the external buffer replaced with 10 mM TRIS-HCL, pH 7.4, by dialysis. Finally, the lipid nanoparticles were filtered through a 0.2 μm pore sterile filter. Lipid nanoparticle particle size was 50-150 nm diameter and polydispersity index (PI) of 0.1-0.4 as determined by Zeta Sizer (Malvern Panalytical, UK). The charge of the formulation was also measured by Zeta Sizer and ranged between 20 to −20 mV.

[2] = Body weight of mice in the in vivo study (tolerability); details: female SWISS mice, 1 μg LNP-formulated saRNA intramuscularly
Procedure: (§1) Female SWISS mice (6 weeks old) were purchased from Janvier Laboratories (Paris, France) and kept in individually ventilated cages with access to food and water ad libitum. Mice were anesthetized with isoflurane (Zoetis, Louvain-La-Neuve, Belgium) (5% for induction and 2% for maintenance) and intramuscularly injected with a total of 1 μg in 100 μL Tris-HCL (50 μL per leg) LNP-formulated luciferase saRNA (for each group n=7). The expression of the luciferase induced bioluminescence was measured via non-invasive In vivo bioluminescent imaging (In vivo Imaging System (IVIS) Lumina III, Perkin Elmer, Waltham, Massachusetts, USA), 10 minutes after subcutaneous injection of 200 μL of D-luciferin (GoldBio, Saint Louis, Missouri, USA, #LUCK-1G) were measured in day 0 (before injection), day 1, day 3, day 5, day 7, day 10, day 15 and day 20. Table 4 and 5 report on the in vivo study using exemplary compounds 10-21, 10-44 and 10-45 and comparator lipids C12-200 and C1. […] Table 5 supports good tolerability of the compounds according to formula I.

[3] = test system: luciferase saRNA; test: In vivo bioluminescent imaging after intramuscular injection of LNP-formulated luciferase saRNA; details: female SWISS mice, 1 μg luciferase saRNA intramuscularly
Procedure: as §1

[4] = saRNA encapsulation, Quant-IT RiboGreen assay; assay type: physicochemical; details: LNP with saRNA; RiboGreen with or without 2% Triton X-100
Procedure: The saRNA loading in LNP formulations was quantified using a Quant-IT RiboGreen assay (Thermo Fisher Scientific, Waltham, Massachusetts, USA) as previously described. 14 samples were diluted tenfold in 1× Tris HCL—EDTA (TE) buffer (10 mM Tris-HCL, 1 mM EDTA, pH 7.5) with or without 2% (v/v) Triton X-100 (Sigma-Aldrich, Saint Louis, Missouri, USA). Standard solutions were also prepared in 1×TE with or without 2% (v/v) Triton X-100 to account for any variation in fluorescence. The assay was performed according to the manufacturer's protocol. Samples were loaded on a black 96-well plate and analysed for fluorescence on a microplate reader (Tecan Infinite@200 PRO) at an excitation of 485 nm and emission at 528 nm. Encapsulation efficiency was calculated between 80-100%.

## CCCCCCCCCCCCCCOC(=O)CCN(CCC(=O)OCCCCCCCCCCCCCC)CCN1CCN(CCN(CCC(=O)OCCCCCCCCCCCCCC)CCC(=O)OCCCCCCCCCCCCCC)CC1 [Comparator 1 (C1), reference compound]
[1]
  Polydispersity Index (PI): 0.16
  Z-average (nm): 70.96 nm
  Zetapotential (mV): 9.07 mV
[2]; Day 0 (before injection)
  Weight: 26.56 g
[2]; Day 1
  Weight: 25.99 g
[2]; Day 3
  Weight: 27.21 g
[2]; Day 5
  Weight: 27.59 g
[2]; Day 7
  Weight: 27.09 g
[2]; Day 10
  Weight: 27.17 g
[2]; Day 15
  Weight: 29.43 g
[2]; Day 20
  Weight: 30.11 g
[3]; Day 0 (before injection)
  Bioluminescence expression of LNPs: 3.32E+04
[3]; Day 1
  Bioluminescence expression of LNPs: 2.76E+07
[3]; Day 3
  Bioluminescence expression of LNPs: 1.28E+08
[3]; Day 5
  Bioluminescence expression of LNPs: 7.19E+07
[3]; Day 7
  Bioluminescence expression of LNPs: 8.88E+07
[3]; Day 10
  Bioluminescence expression of LNPs: 5.07E+06
[3]; Day 15
  Bioluminescence expression of LNPs: 8.46E+04
[3]; Day 20
  Bioluminescence expression of LNPs: 4.32E+04
[4]
  Encapsulation (%): 99.03%

## CCCCCCC(CCCC)C(=O)OCCCCN(CCCCOC(=O)C(CCCC)CCCCCC)CCN1CCN(CCO)CC1 (stereo not shown) [Compound 10-21, ((2-(4-(2-hydroxyethyl)piperazin-1-yl)ethyl)azanediyl)bis(butane-4,1-diyl) bis(2-butyloctanoate)]
[1]
  Polydispersity Index (PI): 0.16
  Z-average (nm): 72.27 nm
  Zetapotential (mV): 7.05 mV
[2]; Day 0 (before injection)
  Weight: 27.96 g
[2]; Day 1
  Weight: 28.19 g
[2]; Day 3
  Weight: 28.26 g
[2]; Day 5
  Weight: 27.90 g
[2]; Day 7
  Weight: 28.01 g
[2]; Day 10
  Weight: 27.57 g
[2]; Day 15
  Weight: 28.63 g
[2]; Day 20
  Weight: 30.83 g
[3]; Day 0 (before injection)
  Bioluminescence expression of LNPs: 3.89E+04
[3]; Day 1
  Bioluminescence expression of LNPs: 3.23E+06
[3]; Day 3
  Bioluminescence expression of LNPs: 5.03E+07
[3]; Day 5
  Bioluminescence expression of LNPs: 8.74E+07
[3]; Day 7
  Bioluminescence expression of LNPs: 5.77E+07
[3]; Day 10
  Bioluminescence expression of LNPs: 7.72E+06
[3]; Day 15
  Bioluminescence expression of LNPs: 2.44E+05
[3]; Day 20
  Bioluminescence expression of LNPs: 1.62E+05
[4]
  Encapsulation (%): 99.41%

## CCCCCCC(CCCC)C(=O)OCCCCN(CCCCOC(=O)C(CCCC)CCCCCC)CCN1CCN(CCN)CC1 (stereo not shown) [Compound 10-44, ((2-(4-(2-aminoethyl)piperazin-1-yl)ethyl)azanediyl)bis(butane-4,1-diyl) bis(2-butyloctanoate)]
[1]
  Polydispersity Index (PI): 0.15
  Z-average (nm): 67.46 nm
  Zetapotential (mV): 1.25 mV
[2]; Day 0 (before injection)
  Weight: 26.84 g
[2]; Day 1
  Weight: 26.46 g
[2]; Day 3
  Weight: 27.00 g
[2]; Day 5
  Weight: 28.13 g
[2]; Day 7
  Weight: 27.94 g
[2]; Day 10
  Weight: 28.11 g
[2]; Day 15
  Weight: 29.31 g
[2]; Day 20
  Weight: 30.04 g
[3]; Day 0 (before injection)
  Bioluminescence expression of LNPs: 2.87E+04
[3]; Day 1
  Bioluminescence expression of LNPs: 1.61E+07
[3]; Day 3
  Bioluminescence expression of LNPs: 3.62E+07
[3]; Day 5
  Bioluminescence expression of LNPs: 4.98E+07
[3]; Day 7
  Bioluminescence expression of LNPs: 4.24E+07
[3]; Day 10
  Bioluminescence expression of LNPs: 1.09E+06
[3]; Day 15
  Bioluminescence expression of LNPs: 5.87E+04
[3]; Day 20
  Bioluminescence expression of LNPs: 6.12E+04
[4]
  Encapsulation (%): 100.06%

## CCCCCCC(CCCC)C(=O)OCCCCN(CCCCOC(=O)C(CCCC)CCCCCC)CCN1CCN(CCNCCN)CC1 (stereo not shown) [Compound 10-45, ((2-(4-(2-((2-aminoethyl)amino)ethyl)piperazin-1-yl)ethyl)azanediyl)bis(butane-4,1-diyl) bis(2-butyloctanoate)]
[1]
  Polydispersity Index (PI): 0.1
  Z-average (nm): 81.42 nm
  Zetapotential (mV): 2.78 mV
[2]; Day 0 (before injection)
  Weight: 26.93 g
[2]; Day 1
  Weight: 25.79 g
[2]; Day 3
  Weight: 26.43 g
[2]; Day 5
  Weight: 27.10 g
[2]; Day 7
  Weight: 27.27 g
[2]; Day 10
  Weight: 27.69 g
[2]; Day 15
  Weight: 28.19 g
[2]; Day 20
  Weight: 30.21 g
[3]; Day 0 (before injection)
  Bioluminescence expression of LNPs: 6.00E+04
[3]; Day 1
  Bioluminescence expression of LNPs: 1.09E+07
[3]; Day 3
  Bioluminescence expression of LNPs: 1.90E+07
[3]; Day 5
  Bioluminescence expression of LNPs: 1.72E+07
[3]; Day 7
  Bioluminescence expression of LNPs: 1.68E+07
[3]; Day 10
  Bioluminescence expression of LNPs: 7.02E+05
[3]; Day 15
  Bioluminescence expression of LNPs: 7.94E+04
[3]; Day 20
  Bioluminescence expression of LNPs: 8.63E+04
[4]
  Encapsulation (%): 100.49%

## CCCCCCCCCCC(O)CN(CCN1CCN(CCN(CC(O)CCCCCCCCCC)CC(O)CCCCCCCCCC)CC1)CCN(CC(O)CCCCCCCCCC)CC(O)CCCCCCCCCC (stereo not shown) [Compound C12-200, 1,1′-((2-(4-(2-((2-(bis(2-hydroxydodecyl)amino)ethyl) (2-hydroxydodecyl)amino)ethyl)piperazin-1-yl)ethyl)azanediyl) bis(dodecan-2-ol), reference compound]
[1]
  Polydispersity Index (PI): 0.27
  Z-average (nm): 98.11 nm
  Zetapotential (mV): −5.50 mV
[2]; Day 0 (before injection)
  Weight: 28.61 g
[2]; Day 1
  Weight: 27.17 g
[2]; Day 3
  Weight: 28.62 g
[2]; Day 5
  Weight: 28.98 g
[2]; Day 7
  Weight: 28.97 g
[2]; Day 10
  Weight: 29.23 g
[2]; Day 15
  Weight: 30.16 g
[2]; Day 20
  Weight: 31.23 g
[3]; Day 0 (before injection)
  Bioluminescence expression of LNPs: 2.39E+04
[3]; Day 1
  Bioluminescence expression of LNPs: 3.36E+08
[3]; Day 3
  Bioluminescence expression of LNPs: 6.19E+08
[3]; Day 5
  Bioluminescence expression of LNPs: 4.79E+08
[3]; Day 7
  Bioluminescence expression of LNPs: 2.47E+08
[3]; Day 10
  Bioluminescence expression of LNPs: 2.20E+07
[3]; Day 15
  Bioluminescence expression of LNPs: 4.80E+05
[3]; Day 20
  Bioluminescence expression of LNPs: 9.12E+04
[4]
  Encapsulation (%): 95.32%
